Like-named read-outs stand apart in the source and are kept apart here.
Assays:
P. shermanii MCM = test system: P. shermanii MCM; design: method as in PMID 11031263; conditions: cited from earlier work
[1] = target: T1, SmMCM (methylmalonyl-CoA mutase from S. meliloti) (Rhizobium meliloti, UniProt O86028); assay: biochemical; assay type: binding, Sinorhizobium meliloti; conditions: for binding to SmMCM detected by fluorescence quench (in words): low-micromolar / micromolar concentrations
T1 construct: made in house; host or cells: E. coli BL21(DE3)pLysS
T1 sequence (O86028 2-712): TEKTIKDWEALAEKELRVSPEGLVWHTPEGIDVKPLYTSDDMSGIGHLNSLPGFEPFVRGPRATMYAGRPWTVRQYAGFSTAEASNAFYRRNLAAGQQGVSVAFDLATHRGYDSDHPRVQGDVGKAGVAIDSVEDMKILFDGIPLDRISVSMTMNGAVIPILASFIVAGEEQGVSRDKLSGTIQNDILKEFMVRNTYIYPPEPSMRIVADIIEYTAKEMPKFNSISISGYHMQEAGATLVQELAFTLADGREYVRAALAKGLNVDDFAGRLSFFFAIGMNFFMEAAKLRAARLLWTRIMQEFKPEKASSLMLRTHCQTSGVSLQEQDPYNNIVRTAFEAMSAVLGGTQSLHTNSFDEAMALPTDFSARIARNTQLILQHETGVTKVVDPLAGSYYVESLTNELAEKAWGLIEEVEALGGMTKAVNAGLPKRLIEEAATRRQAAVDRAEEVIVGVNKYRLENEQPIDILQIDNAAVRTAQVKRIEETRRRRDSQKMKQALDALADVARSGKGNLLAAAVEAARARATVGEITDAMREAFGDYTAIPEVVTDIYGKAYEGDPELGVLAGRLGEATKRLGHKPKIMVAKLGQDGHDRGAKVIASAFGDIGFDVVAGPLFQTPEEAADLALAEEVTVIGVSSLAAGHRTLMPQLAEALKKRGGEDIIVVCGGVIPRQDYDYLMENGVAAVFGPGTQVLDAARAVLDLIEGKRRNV
Procedure: (§1) All steps involving cobamides were conducted in the dark. The plate was centrifuged for 1 min at 3,800 rpm to level the surface of the liquid in each well. The plate was then incubated for 40 min at 30°C to allow binding, with a brief shaking step after 30 min. […] Following incubation, fluorescence emission at 340 nm (5-nm slit width) was measured upon excitation at 282 nm (5-nm slit width) using a Tecan Infinite M1000 Pro plate reader. Fluorescence, normalized to the initial value, was plotted as a function of cobamide concentration, and fitted to the following equation ([134]): F/F0=1+ΔFmax/F0([E]+[L]+Kd)−([E]+[L]+Kd)^2−4[E][L]/2[E] where F is fluorescence, F0 is initial fluorescence, [E] is total enzyme concentration, [L] is total ligand concentration, and Kd is the binding dissociation constant.

MCM [2] = test system: MCM; design: method as in PMID 10563814; conditions: cited from earlier work
EcMCM (E. coli MCM) = target: T2, EcMCM (E. coli MCM) (Escherichia coli, UniProt P27253); assay: Fluorescence binding assay, EcMCM; conditions: read-out: Kd EcMCM; fitted curve, error = standard error of the curve fit
T2 construct: 6xHis (N); made in house; host or cells: E. coli BL21(DE3)
Procedure: as §1

MCM [3] = test system: MCM; design: method as in PMID 14235521; conditions: cited from earlier work
VpMCM (V. parvula MCM) = VpMCM (V. parvula MCM) (Veillonella parvula, UniProt A0A124EFR6); assay: Fluorescence binding assay, VpMCM; conditions: fitted curve, error = standard error of the curve fit; equimolar α and β subunits
Procedure: The α subunit of VpMCM (encoded by Vpar_RS09005) was expressed with an N-terminal 6×His tag from the pET-Duet expression vector in E. coli BL21(DE3). Protein expression was induced with 520 μM IPTG for 6 h at 30°C. The protein was batch purified by nickel affinity and subsequently purified by FPLC using a HiTrapQ column with an NaCl gradient from 50 to 500 mM in […], pH 8.0, 10% glycerol. The β subunit of VpMCM (encoded by Vpar_RS09000) was expressed separately with an N-terminal 6×His tag from the pET-Duet expression vector in E. coli BL21(DE3). […] Purified protein was dialyzed into 25 mM Tris-HCl, pH 8.0, 300 mM NaCl, 10% glycerol, and 1 mM β-mercaptoethanol. Concentration of pure α and β subunits (Fig. S7) was determined by absorbance at 280 nm (A280) using the theoretically calculated extinction coefficients 75,290 M^−1 cm^−1 and 74,260 M^−1 cm^−1, respectively ([125]). Equimolar amounts of α and β subunits were combined during the setup of fluorescence binding assays.
as §1

SmMCM = target: T3, SmMCM (Rhizobium meliloti, UniProt O86028); assay: Filtration binding assay; design: species or system Sinorhizobium meliloti; conditions: 10 μM cobamide, 15 μM SmMCM
T3 construct: made in house; host or cells: E. coli BL21(DE3)pLysS
T3 sequence (O86028 2-712): T1 sequence (O86028 2-712)
Procedure: Cobamides (10 μM) with and without MCM (15 μM) were incubated in 100 mM Tris, 50 mM phosphate, pH 7.5, at 30°C for 40 min, transferred to Nanosep 10K Omega centrifugal devices (Pall Corporation), and centrifuged for 5 min at 13,900 × g to separate unbound cobamides from enzyme-bound cobamides. The UV-Vis spectra of the filtrates were recorded on a BioTek Synergy 2 plate reader.

[4] = target: T4, SmMCM (Sinorhizobium meliloti MCM) (Rhizobium meliloti, UniProt O86028); assay: Thiokinase-coupled spectrophotometric MCM activity assay; assay type: biochemical; conditions: SmMCM 50 nM reconstituted with 2 μM cobamide; (R)-methylmalonyl-CoA to succinyl-CoA, steady state, 30°C
T4 construct: made in house; host or cells: E. coli BL21(DE3)pLysS
T4 sequence (O86028 2-712): T1 sequence (O86028 2-712)
Procedure: Final concentrations of reagents in the assays were as follows: Tris-phosphate buffer (pH 7.5), 100 mM Tris, 50 mM phosphate; dithionitrobenzoate (DTNB), 400 μM; ADP, 1 mM; MgCl2, 10 mM; (R)-methylmalonyl-CoA, 0 to 4 mM; thiokinase, 5 μM; MCM, 50 nM; and cobamides, 2 μM.
Three separate mixes were prepared, all in 1× Tris-phosphate buffer: an assay mix containing DTNB, ADP, and MgCl2; a substrate mix containing (R)-methylmalonyl-CoA; and an enzyme mix containing thiokinase, MCM, and cobamides. All steps involving cobamides were conducted in the dark. The assay and enzyme mixes were prepared as a master mix and aliquoted into 96-well plates; substrate mixes were prepared in individual wells, in triplicate. All components were incubated at 30°C for 40 min to equilibrate temperature and allow prebinding of cobamides and MCM. After incubation, one replicate at a time, the substrate mix was added to the assay mix, followed by the enzyme mix. Absorbance at 412 nm (A412) was recorded immediately after addition of enzyme and for 1 to 3 min, every 3 s, on a BioTek Synergy 2 plate reader. The increase in A412 in reaction mixtures lacking substrate was subtracted from all readings, to account for reactivity of DTNB with thiols on protein surfaces.

VpMCM (V. parvula MCM), sequence (A0A124EFR6 entry or part of it): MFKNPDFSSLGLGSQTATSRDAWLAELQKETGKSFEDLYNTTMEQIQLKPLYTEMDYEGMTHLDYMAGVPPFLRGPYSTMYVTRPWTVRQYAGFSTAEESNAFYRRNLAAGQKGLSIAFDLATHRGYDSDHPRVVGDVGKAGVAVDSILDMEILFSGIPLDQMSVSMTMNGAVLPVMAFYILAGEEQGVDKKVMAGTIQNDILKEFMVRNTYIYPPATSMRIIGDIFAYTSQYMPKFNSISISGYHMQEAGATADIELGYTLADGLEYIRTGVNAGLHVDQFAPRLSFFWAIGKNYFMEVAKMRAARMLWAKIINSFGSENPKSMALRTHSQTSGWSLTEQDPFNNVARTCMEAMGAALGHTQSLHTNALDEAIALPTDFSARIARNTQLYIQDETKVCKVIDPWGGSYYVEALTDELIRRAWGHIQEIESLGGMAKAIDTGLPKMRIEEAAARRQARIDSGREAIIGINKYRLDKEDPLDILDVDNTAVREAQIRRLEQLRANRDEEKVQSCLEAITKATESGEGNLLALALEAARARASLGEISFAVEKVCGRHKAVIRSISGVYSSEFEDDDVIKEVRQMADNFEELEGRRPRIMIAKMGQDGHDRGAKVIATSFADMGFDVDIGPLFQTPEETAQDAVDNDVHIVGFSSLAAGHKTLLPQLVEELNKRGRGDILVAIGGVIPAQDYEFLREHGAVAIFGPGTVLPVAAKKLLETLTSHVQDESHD
T2 sequence (P27253 whole entry): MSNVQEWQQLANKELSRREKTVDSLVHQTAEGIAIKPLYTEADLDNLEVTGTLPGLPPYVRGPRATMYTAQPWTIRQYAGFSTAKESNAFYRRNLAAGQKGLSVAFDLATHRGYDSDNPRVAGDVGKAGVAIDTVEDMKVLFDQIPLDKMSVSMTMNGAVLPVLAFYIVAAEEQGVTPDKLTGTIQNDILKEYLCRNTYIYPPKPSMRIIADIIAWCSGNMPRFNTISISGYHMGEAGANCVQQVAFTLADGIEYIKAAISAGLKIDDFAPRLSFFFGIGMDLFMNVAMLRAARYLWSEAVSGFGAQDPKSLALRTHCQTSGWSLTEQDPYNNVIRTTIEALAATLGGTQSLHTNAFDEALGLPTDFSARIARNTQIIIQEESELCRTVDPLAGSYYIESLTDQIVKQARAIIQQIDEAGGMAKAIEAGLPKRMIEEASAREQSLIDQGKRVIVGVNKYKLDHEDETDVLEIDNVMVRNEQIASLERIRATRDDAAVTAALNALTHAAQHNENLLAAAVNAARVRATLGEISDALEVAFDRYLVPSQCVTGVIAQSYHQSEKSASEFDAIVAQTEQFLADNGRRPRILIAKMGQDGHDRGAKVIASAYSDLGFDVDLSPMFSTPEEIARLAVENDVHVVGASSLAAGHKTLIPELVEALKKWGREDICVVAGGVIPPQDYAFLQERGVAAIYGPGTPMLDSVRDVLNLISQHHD

Molecule	Kd (EcMCM (E. coli MCM)) [nM]	binding to SmMCM detected by fluorescence quench (in words) [1]	MCM activity in S. meliloti bacteroids (MCM [3])	Kd (VpMCM (V. parvula MCM)) [nM]	binding to SmMCM in filtration-based assay (SmMCM)	further results
C/C1=C2/[N-][C@H]([C@H](CC(N)=O)[C@@]2(C)CCC(=O)NC[C@@H](C)OP(=O)([O-])OP(=O)([O-])OC[C@H]2O[C@@H](n3cnc4c(=O)[nH]c(N)nc43)[C@H](O)[C@@H]2O)[C@]2(C)N=C(/C(C)=C3N=C(/C=C4N=C1[C@@H](CCC(N)=O)C\4(C)C)[C@@H](CCC(N)=O)[C@]\3(C)CC(N)=O)[C@@H](CCC(N)=O)[C@]2(C)CC(N)=O.[CH2-][C@H]1O[C@@H](n2cnc3c(N)ncnc32)[C@H](O)[C@@H]1O.[Co] [adenosylcobinamide-GDP]	–	–	–	–	–	support of P. shermanii MCM activity compared to AdoCbl (P. shermanii MCM): only slight catalytic impairment
C/C1=C2/[N-][C@H]([C@H](CC(N)=O)[C@@]2(C)CCC(=O)NC[C@@H](C)O)[C@]2(C)N=C(/C(C)=C3N=C(/C=C4N=C1[C@@H](CCC(N)=O)C\4(C)C)[C@@H](CCC(N)=O)[C@]\3(C)CC(N)=O)[C@@H](CCC(N)=O)[C@]2(C)CC(N)=O.[CH2-][C@H]1O[C@@H](n2cnc3c(N)ncnc32)[C@H](O)[C@@H]1O.[Co+3] [Ado-cobinamide, adenosylcobinamide, reference compound]	–	–	–	–	–	Kd [1]: 800 ± 200 nM; support of MCM activity in vitro (MCM [2]): does not support MCM activity
C/C1=C2/[N-][C@H]([C@H](CC(N)=O)[C@@]2(C)CCC(=O)NC[C@@H](C)OP(=O)([O-])O[C@H]2[C@@H](O)[C@@H](n3cnc4ncnc(N)c43)O[C@@H]2CO)[C@]2(C)N=C(/C(C)=C3N=C(/C=C4N=C1[C@@H](CCC(N)=O)C\4(C)C)[C@@H](CCC(N)=O)[C@]\3(C)CC(N)=O)[C@@H](CCC(N)=O)[C@]2(C)CC(N)=O.[CH2-][C@H]1O[C@@H](n2cnc3c(N)ncnc32)[C@H](O)[C@@H]1O.[Co+3] [Ado[Ade]Cba, Adeninylcobamide]	1600 ± 400	did not bind to any significant extent	absent	9000 ± 4000	did not bind to any significant extent	–
5-Hydroxybenzimidazolylcobamide [Ado[5-OHBza]Cba]	–	no binding	–	–	little to no binding	–
C/C1=C2/[N-][C@H]([C@H](CC(N)=O)[C@@]2(C)CCC(=O)NC[C@@H](C)OP(=O)([O-])O[C@H]2[C@@H](O)[C@@H](n3cnc4cc(C)c(C)cc43)O[C@@H]2CO)[C@]2(C)N=C(/C(C)=C3N=C(/C=C4N=C1[C@@H](CCC(N)=O)C\4(C)C)[C@@H](CCC(N)=O)[C@]\3(C)CC(N)=O)[C@@H](CCC(N)=O)[C@]2(C)CC(N)=O.[CH2-][C@H]1O[C@@H](n2cnc3c(N)ncnc32)[C@H](O)[C@@H]1O.[Co+3] [AdoCbl, adenosylcobalamin, reference compound]	600 ± 100	–	highest	2800 ± 600	–	Kd ([1]; SmMCM 0.2 μM, pH 7.5, 30°C, average and standard deviation for three or more independent experiments, n. d. = binding too weak to determine Kd): 30 ± 20 nM; kcat [4]: 26 ± 1 s⁻¹
